Legend:
SMMC-7721 cells [1] = test: MTT assay, proliferation of SMMC-7721 cells; type: cell-based, human; conditions: Homo sapiens
Method: (§1) The in vitro antitumor activities of the synthesized compounds 7a-l and 8a-l against five human cancer cells were evaluated in MTT assays using 5-fluorouracil (5-FU) and harmine as positive controls. These cells are human hepatocellular carcinoma cells (SMMC-7721 and Hep G2), human colon cancer cell lines (HCT116), human bladder carcinoma cells (EJ), and human lung cancer cells (H460).
(§2) Hepatocellular carcinoma cells (SMMC-7721 and Hep G2), Human colon cancer cell lines (HCT116), human bladder carcinoma cells (EJ) or human lung cancer cells (H460) at 10^4 cells per well were cultured in 10% FBS DMEM in 96-well flat-bottom microplates overnight. The cells were incubated in triplicate with, or without, different concentrations of each test compound for 48 h. During the last 4 h incubation, 30 μL of tetrazolium dye (MTT) solution (5 mg mL^−1) was added to each well. The resulting MTT-formazan crystals were dissolved in 150 μL DMSO, and absorbance was measured spectrophotometrically at 570 nm using an ELISA plate reader. The inhibition induced by each test compound at the indicated concentrations was expressed as a percentage. The concentration required for 50% inhibition (IC50) was calculated using the software (GraphPadPrism Version 4.03).

Hep G2 cells = test: MTT assay, proliferation of Hep G2 cells; type: cell-based; conditions: Homo sapiens, HepG2, 48 h, read-out: In vitro cytotoxicity (IC50) Hep G2
Method: as §1, §2

HCT116 cells = test: MTT assay, proliferation of HCT116 cells; type: cell-based; conditions: Homo sapiens, HCT-116, 48 h, read-out: In vitro cytotoxicity (IC50) HCT116
Method: as §1, §2

EJ cells = test: MTT assay, proliferation of EJ cells; type: cell-based; conditions: 48 h, EJ human bladder carcinoma cells, read-out: In vitro cytotoxicity (IC50) EJ
Method: as §1, §2

H460 cells = test: MTT assay, proliferation of H460 cells; type: cell-based; conditions: NCI-H460, 48 h, H460 human lung cancer cells, read-out: In vitro cytotoxicity (IC50) H460
Method: as §1, §2

LO2 cells = test: MTT assay, proliferation of normal liver LO2 cells; type: cell-based, human
Method: Given the strong growth inhibitory activity of 8h in vitro, it was profiled for antitumor selectivity by examining its inhibitory effects on the growth of SMMC-7721 cells and LO2 cells (human hepatocellular normal cells).
Figure 3 (A) Inhibitory effects of 8h on the proliferation of SMMC-7721 and LO2 cells. Cells were incubated with the indicated concentrations of 8h for 48 h. Cell proliferation was assessed using the MTT assay. Data are means ± SD of the inhibition (%) from three independent experiments. (B) Inhibitory effects of 5h, 8h, and SA or the vehicle control against SMMC-7721 and LO2 cells. SMMC-7721 and LO2 cells were incubated with the indicated compounds at 25 μM for 48 h, and cell proliferation was assessed by the MTT assay. Data are means ± SD of the inhibition (%) from three independent experiments. *P < 0.01 versus control of SMMC-7721, ^#P < 0.01 inhibitory effects of 8h in SMMC-7721 versus LO2 cells.
as §2

SMMC-7721 cells [2] = test: Flow cytometry assay of cell apoptosis (FITC-Annexin V/PI); type: cell-based, human; conditions: 48 h
Method: To determine whether apoptosis is involved in the anti-proliferative effects of 8h, apoptosis assay was performed using SMMC-7721 cells. The cells were incubated with either vehicle alone, different concentrations of 8h (7.0 or 14 μM), or 14 μM 5-FU for 48 h, and then stained with FITC-Annexin V and propidium iodide (PI). The percentages of apoptotic SMMC-7721 cells were determined by flow cytometry analysis. In the vehicle group, the occurrence of SMMC-7721 cell apoptosis was minimal. […] Low concentration of 8h (7.0 μM) induced 46% SMMC-7721 cell apoptosis, while the higher dose (14 μM) of 8h induced 63% SMMC-7721 cell apoptosis.
Figure 4 Compound 8h induced SMMC-7721 cell apoptosis in vitro. SMMC-7721 cells were incubated with the indicated concentrations of 8h and 14 μM 5-FU for 48 h, and the cells were stained with FITC-Annexin V and PI, followed by flow cytometry analysis. (A) Flow cytometry analysis. (B) Quantitative analysis of apoptotic cells. Data are expressed as means ± SD of the percentages of apoptotic cells from three independent experiments. *P < 0.01 vs control.
SMMC-7721 cells were cultured overnight and incubated in triplicate with compound 8h (7.0 and 14 μM), 5-FU (14 μM), or vehicle for 48 h. The cells were harvested, and stained with FITC-Annexin V and PI (BioVision) at room temperature for 15 min. The percentage of apoptotic cells was determined by flow cytometry (Beckman Coulter) analysis.

SMMC-7721 cells [3] = test: Mitochondrial membrane potential assay (JC-1); type: cell-based, human; conditions: 14 μM, 48 h (method b112 says 24 h)
Method: The mitochondrial pathway plays an important role in cell apoptosis. To determine whether mitochondria is involved in the apoptosis-inducing effect of 8h, changes in mitochondrial membrane potential were investigated with a fluorescent probe JC-1. JC-1 is a lipophilic cationic dye which facilitates the penetration of mitochondrial membrane due to the decrease of membrane potential, indicated by a fluorescence shift from red to green. The cells were treated with vehicle alone, with different concentrations of 8h (7.0 or 14 μM), or 14 μM 5-FU for 48 h, and then stained with JC-1. […] The percentage of cells emitting green fluorescence reached 57% at the higher dose of 14 μM. The observations indicate that 8h plays a role in the dissipation of mitochondrial membrane potential and the apoptosis effect of 8h is associated with mitochondrial depolarization in cells.
Mitochondrial membrane potential was assessed using a Beyotime (China) kit with JC-1. Briefly, the SMMC-7721 cells in the logarithmic growth phase were treated with 8h (7.0 or 14 μM), 5-FU (14 μM), or vehicle control for 24 h. The cells were harvested, and then labeled with JC-1 in accordance with the manufacturer’s instructions. The samples labeled with JC-1 were analyzed via flow cytometry. For the detection of JC-1, excitation was set at 530 nm, and emissions collected at 585 nm.

[4] = system: human cancer cells (SMMC-7721, Hep G2, HCT116, EJ, H460); test: MTT assay, summary statements across several human cancer cell lines; type: cell-based
Method: as §1, §2

IC50 ([4]; Homo sapiens, SMMC-7721, Hep G2, HCT116, MTT, read-out: IC50 values for liver and colon cancer cells growth (range over cell lines)): 6.97 to 8.25 µM
IC50 fold lower than that of 5-FU ([4]; liver and colon cancer cells): 4~6 fold
Structure (SMILES): Cc1nc(C(=O)NCCCCCNC(=O)c2ccccc2O)cc2c1[nH]c1ccccc12 [8h, N-(5-(2-Hydroxybenzamido)pentyl)-1-methyl-9H-pyrido[3,4-b]indole-3-carboxamide]
IC50 (SMMC-7721 cells [1]; SMMC-7721, 48 h, read-out: In vitro cytotoxicity (IC50) SMMC-7721, MTT assay, 48 h, SMMC-7721 human hepatocellular carcinoma cells): 6.97 µM
inhibition at 25 µM (SMMC-7721 cells [1]; SMMC-7721, 25 μM, 48 h, MTT assay, read-out: Inhibition of SMMC-7721 cell proliferation): ~90%
IC50 (Hep G2 cells): 7.12 µM
IC50 (HCT116 cells): 8.25 µM
IC50 (EJ cells): 7.89 µM
IC50 (H460 cells): 13.1 µM
Inhibitory effect on LO2 cells (LO2 cells; 25 μM, 48 h, MTT assay): little inhibitory effects
IC50 (LO2 cells; L02, MTT assay, 48 h, LO2 human hepatocellular normal cells, read-out: IC50 against liver normal LO2 cells): 55.2 µM
Selectivity: IC50 on SMMC-7721 fold lower than against LO2 cells (LO2 cells; SMMC-7721 vs LO2): 9 fold
Growth inhibitory activity on non-cancer LO2 cells (LO2 cells; concentrations up to 25 μM, 48 h, MTT): no apparent growth inhibitory activity
SMMC-7721 cell apoptosis (percentage of apoptotic cells) (SMMC-7721 cells [2]; 7.0 μM): 46%
SMMC-7721 cell apoptosis (percentage of apoptotic cells) (SMMC-7721 cells [2]; 14 μM): 63%
Percentage of cells emitting green fluorescence (JC-1) (SMMC-7721 cells [3]): 57%

— article PMC5099944, “Design, synthesis and biological evaluation of hybrids of β-carboline and salicylic acid as potential anticancer and apoptosis inducing agents” (Scientific Reports, 2016)
